Tested on: 422866-222-R5-J1-PDC complex spheroids viability
Test: Anticancer human tumor 422866-222-R5-J1-PDC patient-derived pancreatic adenocarcinoma cell line growth inhibition [RAS]
Settings: for IC50: curve of first compound; for viability, T/C: stronger effect = lower value
Summary of the method: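 Agents were tested in combination matrices in half-log decrements from a top concentration at or near clinical Cmax (10 microM if undetermined). Targets were multi-cell spheroids of tumour lines plus HUVEC and MSC stromal cells.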
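Further: spheroids exposed to compounds for 7 days.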
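Wherever viability, T/C is given: 100% = DMSO vehicle control viability.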

For `CC(C)NCC(C(=O)N1CCN(c2ncnc3c2C(C)CC3O)CC1)c1ccc(Cl)cc1` (configuration not stated) + C=CC(=O)N1CCN(c2nc(OCC3CCCN3C)nc3c(F)c(-c4nc(N)cc(C)c4C(F)(F)F)c(Cl)cc23)C(C)C1, the IC50 (second compound 0.00316 µM) was < 31.6 nM, the IC50 (second compound 0.01 µM) was < 31.6 nM and the IC50 (second compound 0.0316 µM) was < 31.6 nM. For the same molecule, the IC50 (second compound 0.1 µM) was < 31.6 nM, the IC50 (second compound 0.316 µM) was < 31.6 nM and the IC50 (second compound 1 µM) was < 31.6 nM. The viability, T/C (second compound 0.00316 µM, first compound 0.0316 µM) was 27.2%, the viability, T/C (second compound 0.00316 µM, first compound 0.1 µM) was 32.1% and the viability, T/C (second compound 0.00316 µM, first compound 0.316 µM) was 19.7%. For the same molecule, the viability, T/C (second compound 0.00316 µM, first compound 1 µM) was 17%, the viability, T/C (second compound 0.00316 µM, first compound 3.16 µM) was 16.7% and the viability, T/C (second compound 0.00316 µM, first compound 10 µM) was 16.7%. The viability, T/C (second compound 0.01 µM, first compound 0.0316 µM) was 23.3%, the viability, T/C (second compound 0.01 µM, first compound 0.1 µM) was 24.8% and the viability, T/C (second compound 0.01 µM, first compound 0.316 µM) was 17.9%. For the same molecule, the viability, T/C (second compound 0.01 µM, first compound 1 µM) was 12.2%, the viability, T/C (second compound 0.01 µM, first compound 3.16 µM) was 12.6% and the viability, T/C (second compound 0.01 µM, first compound 10 µM) was 13.3%. The viability, T/C (second compound 0.0316 µM, first compound 0.0316 µM) was 27.9%, the viability, T/C (second compound 0.0316 µM, first compound 0.1 µM) was 22% and the viability, T/C (second compound 0.0316 µM, first compound 0.316 µM) was 14.4%. It also gave a viability, T/C (second compound 0.0316 µM, first compound 1 µM) of 14.9%, a viability, T/C (second compound 0.0316 µM, first compound 3.16 µM) of 14.2% and a viability, T/C (second compound 0.0316 µM, first compound 10 µM) of 14.3%. For the same molecule, the viability, T/C (second compound 0.1 µM, first compound 0.0316 µM) was 21.6%, the viability, T/C (second compound 0.1 µM, first compound 0.1 µM) was 19.2% and the viability, T/C (second compound 0.1 µM, first compound 0.316 µM) was 15.2%. The viability, T/C (second compound 0.1 µM, first compound 1 µM) was 12%, the viability, T/C (second compound 0.1 µM, first compound 3.16 µM) was 13% and the viability, T/C (second compound 0.1 µM, first compound 10 µM) was 12.8%. For the same molecule, the viability, T/C (second compound 0.316 µM, first compound 0.0316 µM) was 24.1%, the viability, T/C (second compound 0.316 µM, first compound 0.1 µM) was 16.4% and the viability, T/C (second compound 0.316 µM, first compound 0.316 µM) was 14.8%. It also gave a viability, T/C (second compound 0.316 µM, first compound 1 µM) of 13.6%, a viability, T/C (second compound 0.316 µM, first compound 3.16 µM) of 12.7% and a viability, T/C (second compound 0.316 µM, first compound 10 µM) of 16.6%. It also gave a viability, T/C (second compound 1 µM, first compound 0.0316 µM) of 23.6%, a viability, T/C (second compound 1 µM, first compound 0.1 µM) of 15.2% and a viability, T/C (second compound 1 µM, first compound 0.316 µM) of 16.7%. The viability, T/C (second compound 1 µM, first compound 1 µM) was 12.5%, the viability, T/C (second compound 1 µM, first compound 3.16 µM) was 13.9% and the viability, T/C (second compound 1 µM, first compound 10 µM) was 12.6%.

Source: PubChem BioAssay AID2060901 (Molecular Pharmacology Branch, DTP, NCI, 2025)
